US10738028B2, “Spiro three-membered ring, spiro five-membered ring peptide deformylase inhibitor and use thereof in antibacteria and anti-tumor” (priority 2016, dated 2020)
Values after ≈ are worked out from the molar mass of the structure shown. Read-outs that look alike come from different tables or passages of the source.

Columns and labels:
Assay type in all cases: cell-based
[1] = tested on: methicillin-sensitive Staphylococcus aureus (MSSA); experiment: MIC, two-fold agar dilution (CLSI), clinical isolates
In short: (§1)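 MIC values come from two-fold agar dilution run per CLSI antimicrobial susceptibility testing procedure.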

[2] = tested on: methicillin-resistant Staphylococcus epidermidis (MRSE); experiment: as above
In short: as §1

[3] = tested on: Streptococcus pneoumoniae (SPN); experiment: as above
In short: as §1

[4] = tested on: methicillin-resistant Staphylococcus aureus (MRSA); experiment: as above
In short: as §1

[5] = tested on: methicillin-sensitive Staphylococcus epidermidis (MSSE); experiment: as above
In short: as §1

[6] = tested on: Enterococcus faecalis (EFA); experiment: as above
In short: as §1

[7] = tested on: Moraxella catarrhalis (BCA); experiment: as above; details: for MIC: Moraxella catarrhalis
In short: as §1

[8] = tested on: Escherichia coli (including ESBLs, non-ESBLs); experiment: as above
In short: as §1

[9] = tested on: Enterococcus faecium (EFM); experiment: as above
In short: as §1

[10] = tested on: HCT-116 colorectal cancer cell line; experiment: CCK-8 proliferation inhibition; details: concentration of 30 μM, 72 hours, CCK-8
In short: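 Growth inhibition is read by CCK-8 (1:10 dilution) after 72 h of compound exposure. HCT-116 cells grow in McCoy's 5A containing 10% newborn bovine serum at 2000 cells/well, with 1‰ DMSO as vehicle control.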

[11] = tested on: MGC-803 gastric cancer cell line; experiment: CCK-8 proliferation inhibition; details: Homo sapiens, MGC-803, 72 h, concentration of 30 μM
Description: (§2) 2. The present invention adopts the CCK-8 method to determine the proliferation inhibition effect of the spiro three-membered ring, spiro five-membered ring peptide deformylase inhibitor as described in Examples 1-80 against colorectal cancer cells, lung cancer cells, gastric cancer cells, liver cancer cells, and the like. […] The compound having the best activity synthesized in Example 64 was further tested for its inhibitory activity against other tumor cells including T cell leukemia, acute myeloid leukemia, cervical cancer, breast cancer, prostate cancer and osteosarcoma, and the like (see Table 7).
(§3) (1) HCT-116 colorectal cancer cell line, A549 lung cancer cell line, MGC-803 gastric cancer cell line, BEL-7402 liver cancer cell line, Jurkat T cell leukemia cell line, HL60 acute myeloid leukemia cell line, Hela cervical cancer cell line, MCF-7 breast cancer cell line, PC3 prostate cancer cell line and SAOS-2 osteosarcoma cell line were made into single cell suspension, 180 μL of which was inoculated into 96-well culture plate, which was cultured overnight in CO2 incubator (37° C., 5% CO2, 95% air).
(§4) (2) Each of the spiro three-membered ring, spiro five membered ring peptide deformylase inhibitors was dissolved in DMSO, and was further formulated into drug solution with required different final concentration using corresponding cell culture medium. The drug solutions were added to the above cells respectively (20 μL/well), with the control group added with 1‰ DMSO, and cultured in a CO2 incubator for 72 hours.
(§5) (3) After incubation for 72 hours, the culture solution was decanted, and 100 μL of 1:10 diluted CCK-8 solution was added.
(§6) Wherein, in step (1), the concentration of the single cell suspension was 2000 cells/well.
(§7) Wherein, in step (2), HCT-116 cells were cultured in McCoy's 5A medium (containing 10% newborn bovine serum, 1% double antibody); A549 and PC3 cells were cultured in F12 medium (containing 10% newborn bovine serum, 1% double antibody); MGC-803, BEL-7402, SAOS-2, Jurkat and HL60 cells were cultured in 1640 medium (containing 10% newborn bovine serum, 1% double antibody); and MCF-7 and Hela cells were cultured in DMEM high glucose medium (containing 10% newborn bovine serum, 1% double antibody).

[12] = tested on: BEL-7402 liver cancer cell line; experiment: CCK-8 proliferation inhibition; details: concentration of 30 μM
Description: as §2, §3, §4, §5, §6, §7

[13] = tested on: A549 lung cancer cell line; experiment: CCK-8 proliferation inhibition; details: Homo sapiens, A549, 72 h, concentration of 30 μM
Description: as §2, §3, §4, §5, §6, §7

Compound: CCCC[C@H](CN(O)C=O)C(=O)N1CC2(CC2)C[C@H]1C(=O)Nc1nccs1 [Example 22]
- MIC (anti-bacterial activity) ([1]; strain MSSA 15-3): 0.06 µg/mL (≈ 0.152 µM)
- MIC (anti-bacterial activity) ([1]; strain MSSA 15-4): 0.06 µg/mL (≈ 0.152 µM)
- MIC (anti-bacterial activity) ([1]; strain MSSA 15-5): 0.03 µg/mL (≈ 0.076 µM)
- MIC (anti-bacterial activity) ([1]; strain MSSA 15-6): 0.06 µg/mL (≈ 0.152 µM)
- MIC (anti-bacterial activity) ([2]; strain MRSE 15-1): 0.03 µg/mL (≈ 0.076 µM)
- MIC (anti-bacterial activity) ([2]; strain MRSE 15-2): 0.06 µg/mL (≈ 0.152 µM)
- MIC (anti-bacterial activity) ([2]; strain MRSE 15-3): 0.125 µg/mL (≈ 0.317 µM)
- MIC (anti-bacterial activity) ([2]; strain MRSE 15-7): 0.125 µg/mL (≈ 0.317 µM)
- MIC (anti-bacterial activity) ([3]; strain SPN 16-2): 2 µg/mL (≈ 5.07 µM)
- MIC (anti-bacterial activity) ([3]; strain SPN 16-4): 0.5 µg/mL (≈ 1.27 µM)
- MIC (anti-bacterial activity) ([4]; strain MRSA 15-1): 0.06 µg/mL (≈ 0.152 µM)
- MIC (anti-bacterial activity) ([4]; strain MRSA 15-2): 0.25 µg/mL (≈ 0.634 µM)
- MIC (anti-bacterial activity) ([4]; strain MRSA 15-3): 0.06 µg/mL (≈ 0.152 µM)
- MIC (anti-bacterial activity) ([4]; strain MRSA 15-4): 0.25 µg/mL (≈ 0.634 µM)
- MIC (anti-bacterial activity) ([5]; strain MSSE 15-3): 0.06 µg/mL (≈ 0.152 µM)
- MIC (anti-bacterial activity) ([5]; strain MSSE 15-4): 0.03 µg/mL (≈ 0.076 µM)
- MIC (anti-bacterial activity) ([5]; strain MSSE 15-5): 0.03 µg/mL (≈ 0.076 µM)
- MIC (anti-bacterial activity) ([5]; strain MSSE 15-6): 0.03 µg/mL (≈ 0.076 µM)
- MIC (anti-bacterial activity) ([6]; strain EFA 15-1): 2 µg/mL (≈ 5.07 µM)
- MIC (anti-bacterial activity) ([6]; strain EFA 15-2): 2 µg/mL (≈ 5.07 µM)
- MIC (anti-bacterial activity) ([6]; strain EFA 15-3): 1 µg/mL (≈ 2.53 µM)
- MIC (anti-bacterial activity) ([6]; strain EFA 15-4): 2 µg/mL (≈ 5.07 µM)
- MIC (anti-bacterial activity) ([6]; strain EFA 15-5): 2 µg/mL (≈ 5.07 µM)
- MIC (anti-bacterial activity) ([6]; strain EFA 15-6): 2 µg/mL (≈ 5.07 µM)
- MIC (anti-bacterial activity) ([6]; strain EFA 15-9): 2 µg/mL (≈ 5.07 µM)
- MIC ([7]; 7 clinical isolates, range over strains, read-out: Moraxella catarrhalis (n = 7) MIC): 0.06 to 0.5 µg/mL (≈ 0.152 to 1.27 µM)
- MIC ([7]; lowest MIC reached, read-out: minimum inhibitory concentration against Moraxella catarrhalis, as low as): ≥ 0.06 µg/mL
- MIC (anti-bacterial activity) ([7]; strain BCA 14-1): 0.5 µg/mL (≈ 1.27 µM)
- MIC (anti-bacterial activity) ([7]; strain BCA 14-4): 0.25 µg/mL (≈ 0.634 µM)
- MIC (anti-bacterial activity) ([7]; strain BCA 14-5): 0.06 µg/mL (≈ 0.152 µM)
- MIC (anti-bacterial activity) ([7]; strain BCA 14-6): 0.06 µg/mL (≈ 0.152 µM)
- MIC (anti-bacterial activity) ([7]; strain BCA 14-7): 0.125 µg/mL (≈ 0.317 µM)
- MIC (anti-bacterial activity) ([7]; strain BCA 14-8): 0.5 µg/mL (≈ 1.27 µM)
- MIC (anti-bacterial activity) ([7]; strain BCA 14-10): 0.125 µg/mL (≈ 0.317 µM)
- MIC (anti-bacterial activity) ([8]; strain ECO+ 15-1): 16 µg/mL (≈ 40.6 µM)
- MIC (anti-bacterial activity) ([8]; strain ECO+ 15-2): 64 µg/mL (≈ 162 µM)
- MIC (anti-bacterial activity) ([8]; strain ECO+ 15-3): 32 µg/mL (≈ 81.1 µM)
- MIC (anti-bacterial activity) ([8]; strain ECO+ 15-4): 32 µg/mL (≈ 81.1 µM)
- MIC (anti-bacterial activity) ([8]; strain ECO− 15-1): 32 µg/mL (≈ 81.1 µM)
- MIC (anti-bacterial activity) ([8]; strain ECO− 15-2): 64 µg/mL (≈ 162 µM)
- MIC (anti-bacterial activity) ([8]; strain ECO− 15-3): 64 µg/mL (≈ 162 µM)
- MIC (anti-bacterial activity) ([8]; strain ECO− 15-4): 64 µg/mL (≈ 162 µM)
- MIC (anti-bacterial activity) ([9]; strain EFM 15-1): 0.5 µg/mL (≈ 1.27 µM)
- MIC (anti-bacterial activity) ([9]; strain EFM 15-2): 2 µg/mL (≈ 5.07 µM)
- MIC (anti-bacterial activity) ([9]; strain EFM 15-3): 0.25 µg/mL (≈ 0.634 µM)
- MIC (anti-bacterial activity) ([9]; strain EFM 15-4): 0.5 µg/mL (≈ 1.27 µM)
- MIC (anti-bacterial activity) ([9]; strain EFM 15-5): 0.25 µg/mL (≈ 0.634 µM)
- MIC (anti-bacterial activity) ([9]; strain EFM 15-6): 0.5 µg/mL (≈ 1.27 µM)
- inhibition at 30 µM ([10]; Homo sapiens, HCT-116, 72 h, read-out: HCT116 inhibition rate/%): > 50%
- HCT116 inhibition rate/% ([10]; 30 µM): 52%
- inhibition at 30 µM [11]: 14%
- inhibition at 30 µM ([12]; Homo sapiens, Bel-7402, 72 h): > 50%
- Inhibition of proliferation, Liver cancer BEL-7402 ([12]; 72 hours, 30 µM): 51%
- inhibition at 30 µM [13]: 21%
